Among the data in patent publication US6953789B2, “Thiol compounds, their production and use” (Takeda Chemical Industries, Ltd., priority 1998, dated 2005) are IC50 and inhibition values, retold here.

In one test the target is T1, recombinant human MMP-13 (Homo sapiens, UniProt P45452).
T1 construct: made in house; host or cells: baculovirus (pBlueBac4 / Bac-N-Blue; virus made in Sf9), expressed in High-Five insect cells; culture supernatant used
As to the kind of experiment: Assay of MMP-13 inhibiting activity (fluorogenic peptide substrate). The class given is biochemical. Conditions: 37° C., 2 hours. Summed up:
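Baculovirus-expressed human MMP-13 (High-Five cell supernatant) in pH 7.5 Tris buffer with 200 mM NaCl, 20 mM CaCl2, 0.1% Brij 35, 1 mM 2-mercaptoethanol; reaction started with 40 μM (stock) MOCAc-PLGL-A2pr(DNP)-AR-NH2, 2 h at 37 °C, stopped at pH 3.0. Fluorescence 330/405 nm; IC50 versus no-compound control.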

The subject of a further test is nasal cartilage. Put plainly: Assay of cartilage collagen degradation inhibiting activity (IL-1β-stimulated nasal cartilage pieces, hydroxyproline release). Format: cell-based, cow. Conditions: 504 h; at 1 μM of compound; human recombinant IL-1β; incubation 3 weeks. On the procedure:
A nasal cartilage was isolated aseptically from a sacrificed cow, and preincubated in a Dulbecco's modified eagle medium containing 5% heat-inactivated fetal bovine serum, 100 units/ml of penicillin G and 100 units/ml of streptomycin at 37° C. under 5% CO2 and 95% air for 3 days. After completing the preincubation, a cartilage piece weighing about 10 mg was prepared and placed in 100 μl of a medium supplemented with a human recombinant interleukin-1β (IL-1β: *ZENZYME*) and a test compound. After incubating for 3 weeks in total during which the culture medium was replaced on the weekly basis, the total amount of hydroxyproline liberated into the culture medium and the amount of hydroxyproline remaining in the cartilage piece were determined and % collagen degradation was calculated. The collagen degradation inhibiting activity of a test compound was determined according to the following equation. Collagen degradation inhibiting activity (%)=100×(Ci−Cs)/(Ci−Cc) Equation: wherein Cc is % collagen degradation in the absence of both of IL-1β and compound, Ci is % collagen degradation in the presence of IL-1β, and Cs is a % collagen degradation in the presence of both of IL-1β and a test compound.

By IC50 is commonly meant the midpoint of a concentration-inhibition curve. Usually inhibition stands for the change of the read-out against control, counted positive when it falls.

For `O=C1C[C@@H](S)CN1Cc1ccc(Oc2ccc(Cl)cc2)cc1` [Example 126, (R)-4-Mercapto-1-[4-(4-chlorophenoxy)benzyl]pyrrolidin-2-one], the IC50 on recombinant human MMP-13 (Table 9) was 1.7 nM. Moreover, in the test on nasal cartilage, the inhibition at 1 µM amounted to 70%.
As for `CC(=O)SC1CC(=O)N(Cc2ccc(Oc3ccccn3)cc2)C1` (stereo not shown) [Example 156, 4-Acetylthio-1-[4-(2′-pyridyloxy)benzyl]pyrrolidin-2-one], on recombinant human MMP-13 (Table 11), the IC50 was 700 nM. The inhibition at 1 µM with nasal cartilage was found to be 84%.
